{"source": "patent US10617660B2", "about": "“Compositions containing benzoate compound and tannic acid for treating central nervous system disorders” (SyneuRx International (Taiwan) Corp., priority 2016, dated 2020)", "key": {"[1]": {"system": "MK801-treated mice", "assay": "Open field test of spontaneous locomotor activity (MK801-induced hyper-locomotion)", "type": "in vivo", "settings": "for effect on MK801-induced hyperactivity (total distance traveled in open field test): oral gavage, cohort 1, FIG. 2", "procedure": "(§1) C57BL/6J male mice were group housed (3-5 mice per cage) with food and water available ad libitum in polysulfone ventilated cages (Alternative Design, AR, USA) in the animal rooms. The colony was maintained on a 12/12-h light/dark cycle at the temperature of 22±2° C. and all behavioral studies will be performed during the dark cycle. All animals used in this study were adult mice (at least 2.5 months of age).\nThe mice were randomly assigned into six groups listed below:\nGroup 3: Sodium benzoate (1000 mg/kg)+MK801\nGroup 4: Sodium benzoate (200 mg/kg)+MK801 […]\nGroup 6: Sodium benzoate (200 mg/kg)+Tannic Acid (60 mg/kg)+MK801.\nEach mouse in Groups 2-6 received an acute administration of MK801 dissolved in normal saline (0.1 mg/kg, i.p.) 20 minutes prior to the behavioral tests. […]\n(§2) All mice of cohort 1 in this study were assessed with open field test as described herein. The mice of cohorts 2 and 3 in this study were assessed with prepulse inhibition test as described herein.\nThe open field test is a common measurement of novelty induced exploratory behavior and general activity in both mice and rats. In this study, mice were placed in a Plexiglas cage (37.5 cm×21.5 cm×18 cm) under 50-65 lux light intensity. Their spontaneous locomotor activities were measured for 60 minutes using the EthoVision video tracking system (Noldus Information Technology, the Netherlands). The travel distance of each mouse was measured as an index of locomotion activity. It generates hyperactivity which is frequently applied as animal models including, but not limited to, schizophrenia, bipolar disorder, attention-deficit hyperactivity disorder, obsessive compulsive disorder, Tourette's syndrome, autism spectrum disorders, Fragile X syndrome, Parkinson's disease, dementia with Lewy bodies, and senile dementia (see Rubia et al., 2010; Sheppard and Bradshaw, 1999; Bent et al., 2014; Powell and Miyakawa, 2006; Nestler and Hyman, 2010; Bubeni{acute over ( )}kova{acute over ( )}-Vales{hacek over ( )}ova et al., 2008; Gobira et al., 2013; Lai et al., 2014; Maio et al., 2014; Sontag et al., 2010; Ding et al., 2014; Walitza et al., 2007; Finestone et al., 1982; Golimstok et al., 2011)."}, "[2]": {"system": "MK801-treated mice", "assay": "Prepulse inhibition test of sensorimotor gating function (MK801-disrupted PPI)", "type": "in vivo", "procedure": "as §1\nThe mice were randomly assigned into ten groups listed below:\nGroup 9: Sodium benzoate (1000 mg/kg)+MK801\nGroup 10: Sodium benzoate (200 mg/kg)+MK801\nGroup 11: Sodium benzoate (600 mg/kg)+MK801\nGroup 12: Sodium benzoate (200 mg/kg)+Tannic Acid (30 mg/kg)+MK801\nGroup 13: Sodium benzoate (200 mg/kg)+Tannic Acid (60 mg/kg)+MK801\nGroup 14: Sodium benzoate (600 mg/kg)+Tannic Acid (10 mg/kg)+MK801\nGroup 15: Sodium benzoate (600 mg/kg)+Tannic Acid (30 mg/kg)+MK801\nGroup 16: Sodium benzoate (600 mg/kg)+Tannic Acid (60 mg/kg)+MK801.\nEach mouse in Groups 8-16 received an acute administration of MK801 dissolved in normal saline (0.1 mg/kg, i.p.) 20 minutes prior to the behavioral tests. Each mouse in Groups 9-16 received an acute administration of sodium benzoate or sodium benzoate in combination with tannic acid (dissolved in PBS, 10, 30 or 60 mg/kg) via oral gavage 20 minutes prior to the MK801 administration.\nThe mice were randomly assigned into five groups listed below:\nGroup 19: Tannic acid_10 mg/kg+MK801\nGroup 20: Tannic acid_30 mg/kg+MK801\nEach mouse in Groups 18-21 received an acute administration of MK-801 (a NMDA receptor antagonist, dissolved in normal saline (0.1 mg/kg, i.p.) 20 minutes prior to behavioral tests. On the other hand, each mouse in Groups 19-21 received an acute administration of tannic acid (dissolved in 30% PEG400 in PBS, 10, 30 or 100 mg/kg) via oral gavage 20 minutes prior to the MK801 administration.\nas §2\nPrepulse inhibition was used as an index of sensorimotor gating function using SR-LAB startle apparatus (San Diego Instruments, San Diego, Calif., USA). The startle stimulus was a 40 ms, 120 dB white noise burst. In the pre-pulse (pp)+pulse trials, a 20 ms white noise pre-pulse stimuli of 82 dB (pp10) or 90 dB (pp18) was presented 100 ms before a 40 ms 120 dB pulse. The trials were presented pseudo-randomly and separated by inter-trial interval of 15 s on average (varying between 10 to 20 s) under 72 dB background noise. The percentage of pre-pulse inhibition was evaluated by the following formula: % PPI=100×[(PA score)−(pp-P score)]/(PA score), where the PA score was the average of the PA value in the middle blocks."}, "[3]": {"settings": "MK801 0.1 mg/kg i.p., 20 minutes prior to test, model-inducing agent"}}, "note": "Entries after “also recorded” stand apart in the source; their conditions may differ."}
{"smiles": "O=C([O-])c1ccccc1.[Na+]", "note": "[sodium benzoate]", "values": [{"measurement": "effect on MK801-induced hyperactivity (total distance traveled in open field test)", "setting": "[1]; sodium benzoate 200 mg/kg alone, MK801 0.1 mg/kg i.p.", "result": "less effective"}, {"measurement": "effect on MK801-induced hyperactivity (total distance traveled in open field test)", "setting": "[1]; sodium benzoate 1000 mg/kg alone, MK801 0.1 mg/kg i.p.", "result": "rescued/protected mice from MK801 induced hyper-locomotion more than 200 mg/kg; also recorded: completely prevented"}, {"measurement": "effect on rescuing MK801-disrupted PPI", "setting": "[2]; sodium benzoate alone 200 mg/kg or 600 mg/kg, oral gavage, cohort 2, prepulse 82 dB and 90 dB", "result": "did not show much effects"}, {"measurement": "effect on MK801-impaired prepulse inhibition (percentage of pre-pulse inhibition)", "setting": "[2]; sodium benzoate alone at 200, 600 or 1000 mg/kg, FIG. 3 legend", "result": "can be improved"}]}
{"smiles": "O=C(OC[C@H]1O[C@@H](OC(=O)c2cc(O)c(O)c(OC(=O)c3cc(O)c(O)c(O)c3)c2)[C@H](OC(=O)c2cc(O)c(O)c(OC(=O)c3cc(O)c(O)c(O)c3)c2)[C@@H](OC(=O)c2cc(O)c(O)c(OC(=O)c3cc(O)c(O)c(O)c3)c2)[C@@H]1OC(=O)c1cc(O)c(O)c(OC(=O)c2cc(O)c(O)c(O)c2)c1)c1cc(O)c(O)c(OC(=O)c2cc(O)c(O)c(O)c2)c1", "note": "[tannic acid]", "values": [{"measurement": "effect on rescuing MK801-induced hyper-locomotion", "setting": "[1]; tannic acid alone, dose not given", "result": "little or no effect"}, {"measurement": "effect on MK801-disrupted PPI", "setting": "[2]; tannic acid alone 10, 30, 100 mg/kg, oral gavage, MK801 0.1 mg/kg i.p., cohort 3, prepulse 82 dB and 90 dB, FIG. 4", "result": "little or no effects; also recorded: little or no improvement; also recorded: little or no impact"}]}
{"smiles": "C[C@]12N[C@H](Cc3ccccc31)c1ccccc12", "note": "[MK801]", "values": [{"measurement": "effect on locomotion (total distance traveled in open field test)", "setting": "[1]; [3]", "result": "induced hyperactivity"}, {"measurement": "effect on prepulse inhibition", "setting": "[2]; [3]", "result": "impairs prepulse inhibition"}]}
